# Entries after “also recorded” stand apart in the source; their conditions may differ. Where two headings read alike, the source gives them in different places.
# What was measured:
# [1] = assay type: in vitro ADME; conditions: rat
# Method: RPDQ and 20R-panaxadiol stock methanol solutions (1.00 mg/mL) were all prepared with the reference compounds, respectively. Firstly, blank rat plasma was prepared. The blood samples were collected immediately from the abdominal aorta and incubated at 37 °C for 30 min. The plasma was separated by centrifugation at 4000 rpm for 15 min, and was frozen at −20 °C until analysis. By spiking the dilute solutions with blank rat plasma, calibration curves were plotted to produce the points equivalent to 5, 10, 25, 50, 100, 300, 500, and 1000 ng/mL for RPDQ. […] All the QC and calibration standards samples were prepared freshly before analysis. The specificity, linearity, LLOQ, precision and accuracy, extraction recovery, matrix effect, diluted reliability, and stability of the method were validated by following a non-clinical drug pharmacokinetic study technical guideline (China Food And Drug Administration 2014) and the Bioanalytical Method Validation Guideline (Chinese Pharmacopoeia 2015, Vol. 4). Specificity was assessed by comparing blank plasma samples, plasma was spiked with RPDQ and 20R-panaxadiol, and plasma samples were collected after administration. Linearity was analyzed through weighted regression (1/x^2) of peak area ratios (y) of RPDQ to 20R-panaxadiol versus nominal concentration (x) in plasma. […] The intra- and inter-day precision and accuracy were evaluated with the analysis of six replicate QC samples on three consecutive days, respectively. The extraction recovery and matrix effect at three QC concentrations were assayed. By comparing peak areas of RPDQ and 20R-panaxadiol in extracted QC samples with those in post-extracted blank plasma samples, the recoveries were calculated. Moreover, by comparing the peak area of samples spiked after extraction with that of the neat solution’s equivalent concentration, the matrix effect was then evaluated. Stability was evaluated by analyzing replicate QC samples, which were stored at −20 °C for two weeks at room temperature for 4 h, and experienced three freeze/thaw cycles (from −20 °C to room temperature) on consecutive days. The stabilities of RPDQ in stock solutions at 15 °C and stored in plastic autosampler vials for 16 h at 10 °C were also assessed. Five-fold higher concentrations of QC were achieved by adding moderate RPDQ to blank plasma. The samples were then diluted and analyzed with undiluted calibration standards. The accuracy and precision were within acceptable limits (± 15%).
# [2] = test system: SPC-A-1 cells; test: MTT cell viability test, SPC-A-1 cells; assay type: cell-based; conditions: 1-200 μM, 44 h
# From the text: Antitumor activity test of RPDQ in vitro by using S180, SPC-A-1 and A549 cells
# Since the startmaterial for the semi-synthesis of 12-Riboside-pseudoginsengenin DQ (RPDQ) was pseudoginsengenin DQ (PDQ), the antitumor activities of RPDQ […]
# and PDQ were both tested.
# The SPC-A-1 and S180 tumor cell lines were purchased from Wuhan Procell Life Science & Technology Co,.Ltd. A549 tumor cell lines were purchased from iCell Bioscience Inc (Shanghai) Biological Co., Ltd.
# 2. Experimental procedure
# S180 cells (1 × 10^5 cells/mL) were seeded into a 96-well plate. After 24 h, pretreated with various concentrations of RPDQ or PDQ (1-200 μM) for 44 h at 37℃, and the cells were treated with MTT for 4 h. The formazan crystal product in the cells were dissolved with acid isopropanol. The absorbance was measured at 570 nm with a […]
# SPC-A-1/A549 cells(1×10^5 cells/mL) were seeded into a 96-well plate. After 24 h, pretreated with various concentrations of RPDQ or PDQ (1-200 μM) for 44 h at 37℃ , and the cells were treated with MTT for 4 h. […] The absorbance was measured at 490 nm with a […]
# Cell viability was calculated by the following formula: Cell viability (%)= 1-{(ODcontrolgroup-ODtreatedgroup)/ODcontrol group×100%}.
# All data were processed by statistical software SPSS 17.0. The data were expressed as Mean ± Standard Deviation. The differences between groups were analyzed by one-way analysis of variance. […]
smiles,measurement,setting,value
"CC(C)(O)[C@@H]1CC[C@@](C)([C@H]2CC[C@]3(C)[C@@H]2[C@H](O[C@@H]2O[C@H](CO)[C@@H](O)[C@H]2O)C[C@@H]2[C@@]4(C)CC[C@H](O)C(C)(C)[C@@H]4CC[C@]23C)O1 [RPDQ, 20S, 24S-12-O-β-D-ribofuranosyl-dammar-20, 24-epoxy-3β, 12β, 25-triol]",Mean concentration,[1]; 15 ng/mL,14.96 ± 0.58 ng/mL
same,Mean concentration,[1]; 200 ng/mL,188.7 ± 16.57 ng/mL
same,Mean concentration,[1]; 800 ng/mL,785.21 ± 19.19 ng/mL
same,Accuracy,"[1]; 3 freeze-thaw cycles, 800 ng/mL",−1.85%
same,Accuracy,"[1]; 3 freeze/thaw cycles, 15 ng/mL",−0.03%
same,Accuracy,"[1]; 3 freeze/thaw cycles, 200 ng/mL",−5.65%
same,Accuracy,"[1]; 4 h, 15 ng/mL",−1.00%
same,Mean concentration,"[1]; 4 h, 15 ng/mL",14.85 ± 0.72 ng/mL
same,Accuracy,"[1]; 4 h, 200 ng/mL",−5.94%
same,Mean concentration,"[1]; 4 h, 200 ng/mL",188.12 ± 14.00 ng/mL
same,Accuracy,"[1]; 4 h, 800 ng/mL",−3.25%
same,Mean concentration,"[1]; 4 h, 800 ng/mL",773.99 ± 26.01 ng/mL
same,Accuracy,"[1]; 16 h, 15 ng/mL",2.2%
same,Mean concentration,"[1]; 16 h, 15 ng/mL",15.33 ± 1.61 ng/mL
same,Accuracy,"[1]; 16 h, 200 ng/mL",−6.52%
same,Mean concentration,"[1]; 16 h, 200 ng/mL",186.96 ± 13.41 ng/mL
same,Accuracy,"[1]; 16 h, 800 ng/mL",2.03%
same,Mean concentration,"[1]; 16 h, 800 ng/mL",816.23 ± 15.82 ng/mL
same,Accuracy,"[1]; 14 d, 15 ng/mL",2.74%
same,Mean concentration,"[1]; 14 d, 15 ng/mL",15.41 ± 1.47 ng/mL
same,Accuracy,"[1]; 14 d, 200 ng/mL",−10.47%
same,Mean concentration,"[1]; 14 d, 200 ng/mL",179.07 ± 14.73 ng/mL
same,Accuracy,"[1]; 14 d, 800 ng/mL",−1.71%
same,Mean concentration,"[1]; 14 d, 800 ng/mL",786.32 ± 19.88 ng/mL
same,anticancer / anti-proliferation effect,[2],good anti-proliferation effects; also recorded: significant anticancer activity

# Source: publication PMC6222672, “Pharmacokinetic and Metabolism Studies of 12-Riboside-Pseudoginsengenin DQ by UPLC-MS/MS and UPLC-QTOF-MS^E” (Molecules : A Journal of Synthetic Chemistry and Natural …, 2018)
